Like-named read-outs stand apart in the source and are kept apart here.
Key:
[1] = Fluorescent response to ascorbic acid (Table 1); type: biochemical; settings: relative fluorescence intensity, blank = 10; probe 21.3 μM, ascorbic acid 50 μM, 37° C., 10 minutes
Procedure: (§1) Moreover, in other conditions than those of the above-described tests, reactivity of all of the compounds 1a to 1d with H2O2, other various kinds of nucleophilic agents, reducing agents and the like also was tested, respectively. More specifically, fluorescent responses of 1a to 1d with respect to a XO-HPX system, a XO-HPX-SOD system, H2O2, ascorbic acid, 1,4-hydroquinone, propylamine, diethylamine, glucose, esterase, a cytochrome P450 reductase+NADPH system, and a diaphorase+NADH system were measured, respectively. Operational processes thereof will be described below. Firstly, 1a to 1d and the above-described reagents were dissolved in HEPES of 10 mM having a pH of 7.4 so as to prepare solutions, respectively. Next, a 96 wellmicroplate was provided, where any of the solutions of 1a to 1d (25 μM, 170 μL) was poured into each of the wells, and furthermore, 30 μL of a blank solution or 30 μL of the solution of the reagent to be reacted therewith was added thereto. Final concentrations of the solutions in the wells were adjusted so that concentrations of the solutions of 1a to 1d respectively could be 21.3 μM, that of XO could be 13.1 mU/mL, those of HPX, H2O2, ascorbic acid, 1,4-hydroquinone, propylamine, diethylamine, glucose, NADPH and NADH respectively could be 50 μM, that of cytochrome P450 reductase could be 68 mU/mL, that of diaphorase could be 65 mU/mL, and that of esterase could be 0.5 U/mL, respectively. Then, after they reacted in the wells at 37° C. for 10 minutes, fluorescent responses were measured respectively. Fluorescence intensity measurement was conducted by using an ETC-272 Peltier thermostatted single cell holder (trade name) manufactured by JASCO Corporation or a SpectraMax GeminiEM fluorescence plate reader (trade name) manufactured by Molecular Devices Corporation provided with a FP-750 spectrofluorometer (trade name) manufactured by JASCO Corporation, and by setting excitation wavelengths and emission wavelengths so that those of 1a, 1b and 1c respectively could be 485 nm and 515 nm, and those of 1d respectively could be 511 nm and 540 nm.

[2] = tested on: neutrophils stimulated by phorbol myristate acetate (PMA); experiment: Superoxide detection in PMA-stimulated neutrophils (FIG. 2, FIG. 3); type: cell-based, human; settings: probe 25 μM solution 50 μL, PMA 0.64 μM solution 50 μL, 37° C., 120 minutes
Description: It is known that, if neutrophils are stimulated by phorbol ester, superoxide is produced. […] A specific testing method will be described below.
Firstly, whole blood donated by a good-health volunteer was heparinized, and it was subjected to centrifugal separation after adding a Mono-Poly resolving medium manufactured by Dainippon Pharmaceutical Co. Ltd. thereto. After the separation, cells were washed with PBS (−) twice, were suspended again at a concentration of 1.0×10^6 or 1.0×10^5 cells/mL by using PBS (+), and were maintained under an ice-cold condition until they were used. […] Fluorescence intensity measurement was conducted immediately (measurement at the time 0), and thereafter, incubation was conducted at 37° C. for 120 minutes. During the incubation, a change of the fluorescence intensity of the cells was measured once every 30 minutes. All of the measurements were conducted by using a CytoFluor II multiwell fluorescence plate reader (trade name) manufactured by PerSeptive Biosystems, Inc. in the U.S., by setting an excitation filter and an emission filter at 485±20 nm and 530±25 nm, respectively.
A horizontal axis of the graph denotes an incubation time (minute), and a vertical axis thereof denotes a fluorescence intensity (au). […]

[3] = Fluorescent response to propylamine (Table 1); type: biochemical; settings: relative fluorescence intensity, blank = 10; probe 21.3 μM, propylamine 50 μM, 37° C., 10 minutes
Procedure: as §1

[4] = Fluorescent response to XO-HPX system, 96-well microplate (Table 1); type: biochemical; settings: relative fluorescence intensity, blank = 10, probe 21.3 μM, 10 minutes
Procedure: as §1

[5] = Tracking fluorescence on reaction with H2O2 (FIG. 1d); type: biochemical; settings: H2O2 40 μM only
Description: This figure is a graph showing results that are obtained by tracking fluorescence by allowing the compound 1d to react with H2O2 or superoxide produced enzymatically, a horizontal axis thereof represents a reaction time (second), and a vertical axis thereof represents a fluorescence intensity (au). In the figure, (a) represents a result obtained by a reaction in the presence of HPX and XO, (b) represents a result obtained by a reaction in the presence of HPX, XO and SOD, (c) represents a result obtained by a reaction under an anaerobic condition in the presence of HPX, XO and SOD, and (d) represents a result obtained by a reaction with only H2O2. The test results shown in FIG. 1 will be described below in further detail.

[6] = tested on: neutrophils; settings: for cell viability after the incubation with respect to before the incubation: 37° C., 120 minutes
Procedure: Moreover, a toxicity of the compound 1d with respect to the neutrophils was evaluated by estimating cell viability by a trypan blue dyeing method. More specifically, the neutrophils (1.0×10^5 cells) were incubated at 37° C. for 120 minutes in a glass test tube coated with human serum albumin, in the presence of both of the compound 1d (6.25 μM) and PMA (0.16 μM), in the presence of either of them, and in the absence of them, respectively. Then, cell viability after the incubation with respect to cell viability before the incubation was measured.

O=C1OC2(c3ccccc31)c1cc(F)c(OS(=O)(=O)c3ccc([N+](=O)[O-])cc3[N+](=O)[O-])c(F)c1Oc1c2cc(F)c(OS(=O)(=O)c2ccc([N+](=O)[O-])cc2[N+](=O)[O-])c1F [Compound 1d]
fluorescent response, ascorbic acid [1]: 11 | detection of superoxide from PMA-stimulated neutrophils [2]: could detect superoxide with high sensitivity in a cell system also | fluorescent response, propylamine [3]: 10 | fluorescent response, XO—HPX ([4]; XO 13.1 mU/mL, HPX 50 μM, HEPES pH 7.4, 37° C.): 554 | fluorescent response, XO—HPX—SOD ([4]; XO-HPX with SOD, 37° C.): 60 | increase of fluorescence intensity with H2O2, FIG. 1(d) [5]: small enough to be neglected | cell viability after the incubation with respect to before the incubation ([6]; in the presence of both 1d (6.25 μM) and PMA (0.16 μM)): 97% | toxicity with respect to the neutrophils ([6]; incubation of 120 minutes): did not show any significant toxicity | cell viability after the incubation with respect to before the incubation ([6]; substance only (1d 6.25 μM or PMA 0.16 μM), 1.0×10^5 neutrophils): 95%
